From US20130324576A1, “THERAPEUTIC COMPOUNDS” (Takeda Pharmaceutical Company Limited, priority 2012, published 2013) come the findings set out here.

In the test the target is T1, human PKR1 receptors (Homo sapiens, UniProt Q8TCW9).
T1 construct: expressed in transfected cells; host or cells: RBL2H3 cells (rat basophilic leukaemia line) expressing human PKR1
T1 sequence (Q8TCW9 whole entry): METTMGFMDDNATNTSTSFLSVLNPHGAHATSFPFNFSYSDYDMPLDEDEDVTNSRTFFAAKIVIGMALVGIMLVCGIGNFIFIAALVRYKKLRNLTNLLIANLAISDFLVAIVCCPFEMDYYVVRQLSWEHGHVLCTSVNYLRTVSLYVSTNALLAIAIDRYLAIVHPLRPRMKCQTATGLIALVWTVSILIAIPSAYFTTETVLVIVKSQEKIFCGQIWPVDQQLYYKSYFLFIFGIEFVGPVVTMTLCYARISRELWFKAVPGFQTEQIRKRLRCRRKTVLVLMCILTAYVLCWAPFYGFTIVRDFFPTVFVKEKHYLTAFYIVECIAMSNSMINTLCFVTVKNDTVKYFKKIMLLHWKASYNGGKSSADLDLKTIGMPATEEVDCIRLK
In words: PKR1 antagonist assay: block of PK1-mediated intracellular calcium release (FLIPR Tetra, Calcium 5 dye). The test is classed as cell-based. To be noted: RBL2H3 cells expressing human PKR1; 10 min pre-incubation, stimulation with PK1 at EC80; calcium fluorescence. The protocol:
Prokineticin receptor 1 (PKR1) antagonists may be functionally assessed by measurement of change in intracellular calcium levels induced by Gq mediated increase in inositol triphosphate (IP3) levels. The ability of a compound to block the intracellular release of calcium mediated by PK1 in RBL2H3 cells expressing human PKR1 receptors is determined as a measure of the compound's antagonist activity in vitro.
Approximately 10,000 cells per assay well are seeded in normal culture medium in a 384 well plate (Corning). Twenty-four hours after seeding, the cells are loaded with a calcium sensitive fluorescent dye by replacing the culture medium with assay buffer (1× Hanks buffered saline, 25 mM HEPES, 0.1% w/v fatty acid free BSA (bovine serum albumin), pH 7.4) containing 1 mM probenecid and 1× Calcium 5 Reagent (Molecular Devices). Cells are incubated at 37° C. for 1 hour to allow for dye uptake.
To test for antagonist activity, test compounds at a final concentration range between 0.32 nM-10 μM (diluted in assay buffer) are added to the assay wells and allowed to incubate for 10 minutes prior to stimulation with PK1. After incubation with test compounds the assay plate is placed in a FLIPR Tetra (Molecular Devices) and PK1 (diluted in assay buffer) is added at the determined EC80 concentration (final). Ligand-dependent changes in intracellular calcium levels are determined by measuring changes in fluorescence of the dye at […] following excitation at 485 nm.
(In general: A change in cytosolic calcium serves as a functional read-out for many receptors and channels.)
Consider `COC1(Cc2ccc(Cl)cc2)CCN(S(=O)(=O)c2c(C)nn(C)c2C)CC1` [Example 58, 4-(4-Chlorobenzyl)-4-methoxy-1-((1,3,5-trimethyl-1H-pyrazol-4-yl)sulfonyl)piperidine], for which the IC50 turned out to be 2400 nM.
In the case of `Cc1nn(C)c(C)c1S(=O)(=O)N1CCC(Oc2ccc(C(F)(F)F)cc2)CC1` [Example 12, 4-[4-(Trifluoromethyl)phenoxy]-1-[(1,3,5-trimethyl-1H-pyrazol-4-yl)sulfonyl]piperidine], the IC50 is 4700 nM.
In the case of `Cc1c(S(=O)(=O)N2CCC(Oc3ccc(Cl)cc3)CC2)c(C(F)(F)F)nn1C` [Example 16, 4-(4-Chlorophenoxy)-1-{[1,5-dimethyl-3-(trifluoromethyl)-1H-pyrazol-4-yl]sulfonyl}piperidine], the IC50 was 4600 nM.
Turning to `Cc1n[nH]c(C)c1S(=O)(=O)N1CCC(C(O)c2ccc(Cl)cc2)CC1` (stereo not drawn) [Example 94], the IC50 worked out at 1740 nM.
`Cc1n[nH]c(C)c1S(=O)(=O)N1CCC(O)(Cc2ccc(Cl)cc2F)CC1` [Example 75, 4-(4-Chloro-2-fluorobenzyl)-1-((3,5-dimethyl-1H-pyrazol-4-yl)sulfonyl)piperidin-4-ol]: the IC50 worked out at 6980 nM.
For the compound `Cc1n[nH]c(C)c1S(=O)(=O)N1CCC(Cc2ccc(Cl)cc2)CC1` [Example 67, 4-(4-Chlorobenzyl)-1-((3,5-dimethyl-1H-pyrazol-4-yl)sulfonyl)piperidine], the IC50 worked out at 520 nM.
With `Cc1nn(C)c(Cl)c1S(=O)(=O)N1CCC(Oc2ccc(Cl)cc2Cl)CC1` [Example 25, 1-[(5-Chloro-1,3-dimethyl-1H-pyrazol-4-yl)sulfonyl]-4-(2,4-dichlorophenoxy)piperidine], the half-inhibitory concentration (IC50) was 1300 nM.
Consider `Cc1nn(C)c(C)c1S(=O)(=O)N1CCC(C(O)c2ccc(Cl)cc2)CC1` (stereo not drawn) [Example 95, (4-Chlorophenyl)(1-((1,3,5-trimethyl-1H-pyrazol-4-yl)sulfonyl)piperidin-4-yl)methanol], for which the IC50 was 710 nM.
On to `Cc1nn(C)c(C)c1S(=O)(=O)N1CCC(Oc2cccc(Cl)c2)CC1` [Example 6, 4-(3-Chlorophenoxy)-1-[(1,3,5-trimethyl-1H-pyrazol-4-yl)sulfonyl]piperidine], for which the IC50 stood at 2200 nM.
In the case of `Cc1nn(C)c(C)c1S(=O)(=O)N1CCC(Oc2ccc(F)cc2)CC1` [Example 20, 4-(4-Fluorophenoxy)-1-[(1,3,5-trimethyl-1H-pyrazol-4-yl)sulfonyl]piperidine] it was 3600 nM; in that of `Cc1nn(C)c(C)c1S(=O)(=O)N1CCC(O)(Cc2ccc(Cl)cc2)CC1` [Example 57, 4-(4-Chlorobenzyl)-1-((1,3,5-trimethyl-1H-pyrazol-4-yl)sulfonyl)piperidin-4-ol], 1600 nM.
The value for `Cc1n[nH]c(C)c1S(=O)(=O)N1CCC(Oc2ccc(Cl)cc2C(F)(F)F)CC1` [Example 40, 4-[4-Chloro-2-(trifluoromethyl)phenoxy]-1-(3,5-dimethyl-1H-pyrazole-4-sulfonyl)piperidine] was 210 nM; that for `CCOC(=O)C1(Cc2ccc(Br)cc2)CCN(S(=O)(=O)c2c(C)n[nH]c2C)CC1` [Example 62, Ethyl 4-(4-bromobenzyl)-1-((3,5-dimethyl-1H-pyrazol-4-yl)sulfonyl)piperidine-4-carboxylate] was 680 nM; that for `COC(c1ccc(Cl)cc1)C1CCN(S(=O)(=O)c2c(C)n[nH]c2C)CC1` (single isomer, unassigned) [Example 98, 4-((4-Chlorophenyl)(methoxy)methyl)-1-((3,5-dimethyl-1H-pyrazol-4-yl)sulfonyl)piperidine] was 160 nM.
Turning to `Cc1nn(C(F)F)c(C)c1S(=O)(=O)N1CCC(Oc2ccc(Cl)cc2Cl)CC1` [Example 29], the IC50 turned out to be 1100 nM.
As for `Cc1n[nH]c(C)c1S(=O)(=O)N1CCC(C(F)c2ccc(Cl)cc2)CC1` (single isomer, unassigned) [Example 107, 4-((4-Chlorophenyl)fluoromethyl)-1-((3,5-dimethyl-1H-pyrazol-4-yl)sulfonyl)piperidine], the IC50 is 310 nM.
The value for `COc1cc(Cl)ccc1OC1CCN(S(=O)(=O)c2c(C)nn(C)c2C)CC1` [Example 74, 4-(4-Chloro-2-methoxyphenoxy)-1-((1,3,5-trimethyl-1H-pyrazol-4-yl)sulfonyl)piperidine] was 170 nM; that for `Cc1n[nH]c(C)c1S(=O)(=O)N1CCC(C(C)c2ccc(Cl)cc2)CC1` (stereo not drawn) [Example 102, 4-(1-(4-Chlorophenyl)ethyl)-1-((3,5-dimethyl-1H-pyrazol-4-yl)sulfonyl)piperidine] was 470 nM; that for `Cc1n[nH]c(C)c1S(=O)(=O)N1CCC(Nc2ccc(Cl)cc2)CC1` [Example 103, N-(4-Chlorophenyl)-1-((3,5-dimethyl-1H-pyrazol-4-yl)sulfonyl)piperidin-4-amine] was 1760 nM.
Turning to `Cc1nn(C)c(C)c1S(=O)(=O)N1CCC(Oc2ccc(OC(F)(F)F)cc2)CC1` [Example 3, 4-[4-(Trifluoromethoxy)phenoxy]-1-[(1,3,5-trimethyl-1H-pyrazol-4-yl)sulfonyl]piperidine], the IC50 worked out at 1400 nM.
The value for `Cc1nn(C)c(C)c1S(=O)(=O)N1CCC(Oc2ccc(Br)cc2F)CC1` [Example 14, 4-(4-Bromo-2-fluorophenoxy)-1-[(1,3,5-trimethyl-1H-pyrazol-4-yl)sulfonyl]piperidine] was 470 nM; that for `Cc1nn(C)c(C)c1S(=O)(=O)N1CCC(C(=O)c2ccc(Cl)cc2)CC1` [Example 49, (4-Chlorophenyl)(1-((1,3,5-trimethyl-1H-pyrazol-4-yl)sulfonyl)piperidin-4-yl)methanone] was 1000 nM.
Consider `Cc1nn(C)c(C)c1S(=O)(=O)N1CCC(Nc2ccc(Cl)c(Cl)c2)CC1` [Example 52, N-(3,4-Dichlorophenyl)-1-((1,3,5-trimethyl-1H-pyrazol-4-yl)sulfonyl)piperidin-4-amine], for which the IC50 was 2700 nM.
On to `COCC1(Cc2ccc(Cl)cc2)CCN(S(=O)(=O)c2c(C)nn(C)c2C)CC1` [Example 60, 4-(4-Chlorobenzyl)-4-(methoxymethyl)-1-((1,3,5-trimethyl-1H-pyrazol-4-yl)sulfonyl)piperidine], for which the IC50 came to 900 nM.
With `Cc1nn(C)c(C)c1S(=O)(=O)N1CCC(Cc2ccc(Cl)c(F)c2)CC1` [Example 72, 4-(4-Chloro-3-fluorobenzyl)-1-((1,3,5-trimethyl-1H-pyrazol-4-yl)sulfonyl)piperidine], the 50% inhibitory concentration (IC50) was 440 nM.
With `Cc1nn(C)c(C)c1S(=O)(=O)N1CCC(Cc2ccc(Cl)cc2)CC1` [Example 55, 4-(4-Chlorobenzyl)-1-((1,3,5-trimethyl-1H-pyrazol-4-yl)sulfonyl)piperidine], the IC50 was determined as 520 nM.
In the case of `Cc1n[nH]c(C)c1S(=O)(=O)N1CCC(Cc2ccc(Cl)cc2F)CC1` [Example 82, 4-(4-Chloro-2-fluorobenzyl)-1-((3,5-dimethyl-1H-pyrazol-4-yl)sulfonyl)piperidine], the IC50 stood at 1020 nM.
The value for `Cc1nn(C)c(C)c1S(=O)(=O)N1CCC(Oc2ccc(Cl)c(Cl)c2)CC1` [Example 1, 4-(3,4-Dichlorophenoxy)-1-((1,3,5-trimethyl-1H-pyrazol-4-yl)sulfonyl)piperidine] was 1400 nM.
In the case of `Cc1n[nH]c(C)c1S(=O)(=O)N1CCC(Oc2ccc(Cl)c(F)c2)CC1` [Example 47, 4-(4-Chloro-3-fluorophenoxy)-1-(3,5-dimethyl-1H-pyrazole-4-sulfonyl)piperidine], the IC50 is 1900 nM.
As for `Cc1n[nH]c(C)c1S(=O)(=O)N1CCC(Oc2ccc3ccccc3c2)CC1` [Example 33, 1-[(3,5-Dimethyl-1H-pyrazol-4-yl)sulfonyl]-4-(naphthalen-2-yloxy)piperidine], the IC50 was 440 nM.
Turning to `Cc1nn(C)c(C)c1S(=O)(=O)N1CCC(Oc2ccccc2)CC1` [Example 19, 4-Phenoxy-1-[(1,3,5-trimethyl-1H-pyrazol-4-yl)sulfonyl]piperidine], the IC50 was 5600 nM.
`COc1ccc(OC2CCN(S(=O)(=O)c3c(C)nn(C)c3C)CC2)cc1F` [Example 43, 4-(3-Fluoro-4-methoxyphenoxy)-1-(trimethyl-1H-pyrazole-4-sulfonyl)piperidine]: the IC50 was 6300 nM.
On to `Cc1n[nH]c(C)c1S(=O)(=O)N1CCC(Oc2ccc(Cl)cc2C#N)CC1` [Example 34, 5-Chloro-2-{[1-(3,5-dimethyl-1H-pyrazole-4-sulfonyl)piperidin-4-yl]oxy}benzonitrile], for which the IC50 is 240 nM.
Take `Cc1nn(C)c(C)c1S(=O)(=O)N1CCC(N(C)c2ccc(Cl)c(Cl)c2)CC1` [Example 54]: the IC50 was found to be 5200 nM.
As to `CCOC(=O)C1(Cc2ccc(Cl)cc2)CCN(S(=O)(=O)c2c(C)nn(C)c2C)CC1` [Example 61, Ethyl 4-(4-chlorobenzyl)-1-((1,3,5-trimethyl-1H-pyrazol-4-yl)sulfonyl)piperidine-4-carboxylate], the IC50 was 1080 nM.
The value for `COc1cc(Cl)cnc1OC1CCN(S(=O)(=O)c2c(C)n[nH]c2C)CC1` [Example 85, 5-Chloro-2-((1-((3,5-dimethyl-1H-pyrazol-4-yl)sulfonyl)piperidin-4-yl)oxy)-3-methoxypyridine] was 1230 nM.

The IC50 is the concentration needed to halve the response being measured.
